Data: paper PMC6848745 (Psychopharmacology, 2018)

Assays:
β2 = settings: ref Nichols et al. 2002; cited from earlier work
[1] = test system: rats trained to discriminate saline from LSD; settings: ref Huang et al. 1994, cited from earlier work; for potency in rats trained to discriminate saline from LSD: rat drug discrimination
human subjects = settings: cited from earlier work
H1 receptors = settings: ref Nichols et al. 2002; Rickli et al. 2015; cited from earlier work
[125I]DOI-labeled sites [2] = read-out: Ki at [125I]DOI-labeled sites; ref Huang et al. 1994; cited from earlier work
β1 = settings: ref Nichols et al. 2002; cited from earlier work
α2-adrenoceptors = settings: [3H]clonidine, rat cortex; ref Leysen 1989; Marona-Lewicka and Nichols 1995; cited from earlier work
C57BL/6J mice [3] = settings: HTR under equivalent conditions; ref Halberstadt and Geyer 2013; cited from earlier work
C57BL/6J mice [4] = test: Head twitch response; format: in vivo, mouse; settings: for ED50, nmol/kg (95% CI) / ED50, μg/kg (95% CI): IP
[125I]DOI-labeled sites [5] = Binding to [125I]DOI-labeled sites; design: species or system rat; settings: from Ki values of Huang et al. 1994
[6] = test system: 5-HT2A sites labeled with [3H]ketanserin; settings: rat frontal cortex / forebrain homogenate; ref Huang et al. 1994; cited from earlier work
[7] = first 20-min of the test session

CCN(CC)C(=O)[C@@H]1C=C2c3cccc4[nH]cc(c34)C[C@H]2N(C)C1 [LSD, (+)-Lysergic acid diethylamide]
Ki (β2): 740 nM | potency in rats trained to discriminate saline from LSD [1]: 0.021 mg/kg | typical oral doses (human subjects; oral, humans, ref Shulgin and Shulgin 1997): 60 to 200 µg | Ki (H1 receptors): 1100 to 1500 nM | Ki ([125I]DOI-labeled sites [2]): 1.43 nM | Ki (β1): 140 nM | Ki (α2-adrenoceptors): 37 to 82 nM | ED50 (C57BL/6J mice [3]): 132.8 nmol/kg

CCCN(C)C(=O)[C@@H]1C=C2c3cccc4[nH]cc(c34)C[C@H]2N(C)C1 [LAMPA, N-methyl-N-propyl lysergamide]
effect in hallucinogen-experienced subjects (human subjects; 100 μg p.o., six subjects, ref Abramson and Rolo 1967): no effect in four subjects and produced effects consistent with a threshold dose of LSD in two subjects | HTR Counts (Mean ± SEM) (C57BL/6J mice [4]; 0.1 mg/kg IP, 20 min): 15.8 ± 2.7 | HTR Counts (Mean ± SEM) (C57BL/6J mice [4]; 0.3 mg/kg IP, 20 min): 31.0 ± 2.2 | HTR Counts (Mean ± SEM) (C57BL/6J mice [4]; 1 mg/kg IP, 20 min): 19.5 ± 3.2 | HTR Counts (Mean ± SEM) (C57BL/6J mice [4]; 3 mg/kg IP, 20 min): 7.4 ± 4.3 | ED50, nmol/kg (95% CI) (C57BL/6J mice [4]; [7]): 358.3 (241.1–532.4) nmol/kg | ED50, μg/kg (95% CI) (C57BL/6J mice [4]; [7]): 115.9 (78.0–172.2) μg/kg

CC(C)N(C)C(=O)[C@@H]1C=C2c3cccc4[nH]cc(c34)C[C@H]2N(C)C1 [MIPLA, N-methyl-N-isopropyl lysergamide]
potency in rats trained to discriminate saline from LSD [1]: 0.036 mg/kg | doses producing LSD-like psychedelic effects (human subjects; human subjects, ref Shulgin 2016): 180 to 300 µg | potency as a psychedelic in man relative to LSD (human subjects; ref Shulgin 2016): one-third | affinity relative to LSD at [125I]DOI-labeled sites ([125I]DOI-labeled sites [5]): about 82% | HTR Counts (Mean ± SEM) (C57BL/6J mice [4]; 0.1 mg/kg IP, 30 min): 12.3 ± 1.1 | HTR Counts (Mean ± SEM) (C57BL/6J mice [4]; 0.2 mg/kg IP, 30 min): 31.8 ± 1.9 | HTR Counts (Mean ± SEM) (C57BL/6J mice [4]; 0.4 mg/kg IP, 30 min): 26.6 ± 3.1 | ED50, nmol/kg (95% CI) (C57BL/6J mice [4]; entire 30-min test session): 421.7 (360.5–493.1) nmol/kg | ED50, μg/kg (95% CI) (C57BL/6J mice [4]; entire 30-min test session): 136.4 (116.6–159.5) μg/kg | Ki ([125I]DOI-labeled sites [2]): 1.75 nM | fold lower affinity than LSD at [3H]ketanserin-labeled 5-HT2A sites [6]: 6 fold

CCN(C(=O)[C@@H]1C=C2c3cccc4[nH]cc(c34)C[C@H]2N(C)C1)C(C)C [EIPLA, N-ethyl-N-isopropyl lysergamide]
fold lower potency than LSD in the rat drug discrimination paradigm [1]: ~3 fold | fold lower affinity than LSD at [3H]ketanserin-labeled 5-HT2A sites [6]: three-fold
